The results in this text go back to patent publication US20150165756A1, “STENCILS” (DTG International GmbH, priority 2011, published 2015).

Each structure is given as a SMILES string. Values after ≈ are worked out from the molar mass of the structure shown.

Common to all, as to type: physicochemical
A short description of data set [1]: Solubility of compound (A) in aqueous media. The note with it: room temperature. The protocol: (6-Bromo-pyrazolo[1,5-a]pyrimidine-2-yl)-(1(R)-methyl-3,4-dihydro-1H-isoquinoline-2-yl)-methanone, and which is of particular interest and has the formula (A) as described above. This compound (A) is the R-enantiomer, but both isomers (R and S) were prepared by classical chemical synthesis. The compound (A) was tested in various compositions (formulations) inter alia for CNS-applications. The compound (A) is a small molecule having a molecular weight of about 360 g/Mol, but is very little soluble in aqueous media at room temperature (about 0.001 to 0.01 mg/ml).

Data set [2] in a line: Octanol/water partition coefficient (log P). From the text: The octanol/water partition coefficient (log P) of the compounds tested according to this invention can e.g. be determined by accepted standard methods, such as OECD guideline (July 1995), “Test No. 107: Partition Coefficient (n-octanol/water): Shake Flask Method”, OECD Guidelines for the Testing of Chemicals, Section 1: Physical-Chemical properties, OECD Publishing. The log P value may also be determined according to the Draft OECD guideline OECD (2000), see OECD Draft guideline for the Testing of Chemicals: 122 Partition Coefficient (n-Octanol/Water): pH-Metric Method for Ionisable Substances.
Compound (A) can be formulated together with various oily components (C) as aqueous based, liquid compositions with higher concentration of the drug substance. These formulations can be easily applied to different animal species and human beings via application routes like the parenteral route. The compound (A) is a lipophilic compound with limited wettability and solubility in aqueous media. The lipophilicity can be expressed by the log P value, which is approximately 3 for compound (A).

Data set [3] is described as follows: Maximal solubility in oily components (mixing, PTFE filtration, HPLC analysis). As to conditions: oil or lipid, thermodynamic from solid. The protocol:
As pyrazolopyrimidine component, (6-Bromo-pyrazolo[1,5-a]-pyrimidine-2-yl)-(1(R)-methyl-3,4-dihydro-1H-isoquinoline-2-yl)-methanone was formulated with various oily components with higher concentrations of the drug substance using specific amounts of oily components (C). The following compositions were prepared by mixing the respective oily component (C) and the pyrazolopyrimidine compound, followed by filtration (PTFE-filter) and then analysis by High Performance Liquid Chromatography.
A liquid mixture was prepared by using 100 g of soybean oil and 100 g of MCT. The soybean oil is commercially available by Caelo (Caesar & Lorenz GmbH, Hilden, Germany). The component MCT is also commercially available (e.g. by Caelo). The solubility of compound (A) in this 50:50 (w/w) mixture of two oily components (C1) and (C2) was tested. Three different compositions were prepared (containing 1 mg/ml, 1.5 mg/ml and 2.0 mg/ml) of compound (A).

Data set [4] in a line: Stability of emulsions with soybean oil/MCT oily component (Example 3). The note with it: oily component comprising soybean oil and MCT. As for the experimental part:
The oily phase containing the compound (A) was then mixed with an emulsifier (1%-3% by weight) of e.g. Lipoid S 75 Lipoid GmbH Germany, and afterwards with the aqueous phase containing a small amount (2.5% by weight) of a tonicity adjusting agent (Glycerol).
Different compositions were prepared containing about 10% to 20% of the oily component (C) and about 70 to 90% of water. These compositions were mixed by using an Ultra-Turrax-homogenizer followed by one to 10 cycles of high pressure homogenisation. These emulsions prepared are then characterized by microscopic analysis and by dynamic light-scattering methods (Horiba LB 500). Furthermore, laser diffraction experiments were made with the emulsions ([…]) and electro-acoustic experiments were performed (Dispersion Technology DT 300; Malvern Zetasizer Nano ZS).
By using the above-mentioned oily component (comprising soybean oil and MCT), it was possible to prepare stable emulsions of compound (A) containing up to 2 mg of compound (A) per ml of the emulsion. The stability of the emulsions prepared with compound (A) can be described by the Zeta-function which describes the degree of repulsion of particles having similar charges. The Zeta-potential of the emulsions were tested by acoustic and optical methods described in the literature.

By solubility is commonly meant the dissolved amount per volume that the medium holds. A word on the logP: it is a log measure of how a compound divides between an organic and an aqueous phase. A lower logP goes with a more hydrophilic compound. Take `C[C@@H]1c2ccccc2CCN1C(=O)c1cc2ncc(Br)cn2n1` [Compound (A), (6-Bromo-pyrazolo[1,5-a]pyrimidine-2-yl)-(1(R)-methyl-3,4-dihydro-1H-isoquinoline-2-yl)-methanone]: the solubility is 1 to 10 µg/mL (≈ 0.00269 to 0.0269 mM) in data set [1]; 8000 µg/mL (≈ 21.5 mM) in data set [3] (50:50 (w/w) mixture of soybean oil and MCT, read-out: maximum solubility in mixture of oily components); 12000 µg/mL (≈ 32.3 mM) in data set [3] (25° C., MCT, read-out: maximal solubility in MCT); 47000 µg/mL (≈ 127 mM) in data set [3] (25° C., castor oil, read-out: maximal solubility in castor oil); 6000 µg/mL (≈ 16.2 mM) in data set [3] (25° C., olive oil, read-out: maximal solubility in olive oil); 7000 µg/mL (≈ 18.9 mM) in data set [3] (25° C., soybean oil, read-out: maximal solubility in soybean oil). Besides, in data set [2], the logP is about 3. In addition, the “content of compound (A) in stable emulsions” value in data set [4] is reported as “up to 2 mg per ml”.
